Measurements from article PMC3713097 (Chemical research in toxicology, 2013).
Each block holds one compound with its values, some of them ahead of it.

Columns and labels:
P450 2A6 [1] = target: T1, P450 2A6 (Homo sapiens, UniProt P11509); conditions: 10 nM P450, 2.5 µM procarcinogen, means ± range of duplicate experiments
T1 sequence (P11509 1-494): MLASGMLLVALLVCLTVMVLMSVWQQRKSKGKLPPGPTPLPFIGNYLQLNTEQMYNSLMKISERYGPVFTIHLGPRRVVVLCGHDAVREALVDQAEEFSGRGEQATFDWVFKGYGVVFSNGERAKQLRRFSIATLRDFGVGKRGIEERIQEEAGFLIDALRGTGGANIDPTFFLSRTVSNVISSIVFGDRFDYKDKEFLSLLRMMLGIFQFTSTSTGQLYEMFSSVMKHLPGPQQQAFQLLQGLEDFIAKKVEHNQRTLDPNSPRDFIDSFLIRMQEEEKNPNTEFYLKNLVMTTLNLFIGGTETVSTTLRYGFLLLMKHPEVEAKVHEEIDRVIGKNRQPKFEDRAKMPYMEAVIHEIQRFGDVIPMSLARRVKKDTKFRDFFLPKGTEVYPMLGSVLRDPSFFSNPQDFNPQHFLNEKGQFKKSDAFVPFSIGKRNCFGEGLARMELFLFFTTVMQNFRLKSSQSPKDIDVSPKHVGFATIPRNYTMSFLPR

P450 1B1 [2] = target: T2, P450 1B1 (Homo sapiens, UniProt Q16678, L432V); conditions: 10 nM P450, 2.5 µM procarcinogen, means ± range of duplicate experiments
T2 sequence (Q16678 1-543 L432V): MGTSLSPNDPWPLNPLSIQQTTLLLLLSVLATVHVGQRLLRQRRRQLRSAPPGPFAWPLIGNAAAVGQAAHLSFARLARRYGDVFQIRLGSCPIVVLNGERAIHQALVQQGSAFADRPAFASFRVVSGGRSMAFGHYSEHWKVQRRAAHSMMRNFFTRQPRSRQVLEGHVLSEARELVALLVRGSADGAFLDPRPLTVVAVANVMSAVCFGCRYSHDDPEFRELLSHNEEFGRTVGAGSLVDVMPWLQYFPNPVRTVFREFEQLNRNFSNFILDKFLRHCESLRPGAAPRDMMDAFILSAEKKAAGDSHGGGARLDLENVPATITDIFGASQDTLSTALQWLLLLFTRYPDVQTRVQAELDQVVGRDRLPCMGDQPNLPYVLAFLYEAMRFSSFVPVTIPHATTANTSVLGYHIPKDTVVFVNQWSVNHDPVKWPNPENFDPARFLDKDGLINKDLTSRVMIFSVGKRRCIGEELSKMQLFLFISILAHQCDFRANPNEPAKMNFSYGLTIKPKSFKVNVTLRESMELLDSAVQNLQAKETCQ

P450 2A13 = target: T3, P450 2A13 (Homo sapiens, UniProt Q16696); assay: Spectral binding titration with purified P450 2A13; conditions: for ΔAmax/ Ks / ΔAmax: P450 2A13, Type I spectra; for ΔAmax: ± SE
T3 sequence (Q16696 with tags, fused parts or gaps limits assumed): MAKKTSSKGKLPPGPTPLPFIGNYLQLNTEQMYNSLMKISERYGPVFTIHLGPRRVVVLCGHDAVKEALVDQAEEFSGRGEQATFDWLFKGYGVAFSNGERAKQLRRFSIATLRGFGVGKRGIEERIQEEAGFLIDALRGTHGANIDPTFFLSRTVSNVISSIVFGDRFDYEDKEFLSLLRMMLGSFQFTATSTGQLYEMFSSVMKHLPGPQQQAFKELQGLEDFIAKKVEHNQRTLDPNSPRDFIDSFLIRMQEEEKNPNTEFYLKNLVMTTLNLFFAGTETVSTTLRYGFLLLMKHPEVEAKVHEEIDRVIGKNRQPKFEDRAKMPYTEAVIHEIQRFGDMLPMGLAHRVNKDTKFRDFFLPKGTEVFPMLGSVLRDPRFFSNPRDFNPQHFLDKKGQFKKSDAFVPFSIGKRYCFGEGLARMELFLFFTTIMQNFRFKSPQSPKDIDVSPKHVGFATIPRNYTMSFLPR

human P450 2A13 = target: T4, human P450 2A13 (Homo sapiens, UniProt Q16696); conditions: 10 nM P450, 2.5 µM procarcinogen, means ± range of duplicate experiments
T4 sequence (Q16696 31-494 limits assumed): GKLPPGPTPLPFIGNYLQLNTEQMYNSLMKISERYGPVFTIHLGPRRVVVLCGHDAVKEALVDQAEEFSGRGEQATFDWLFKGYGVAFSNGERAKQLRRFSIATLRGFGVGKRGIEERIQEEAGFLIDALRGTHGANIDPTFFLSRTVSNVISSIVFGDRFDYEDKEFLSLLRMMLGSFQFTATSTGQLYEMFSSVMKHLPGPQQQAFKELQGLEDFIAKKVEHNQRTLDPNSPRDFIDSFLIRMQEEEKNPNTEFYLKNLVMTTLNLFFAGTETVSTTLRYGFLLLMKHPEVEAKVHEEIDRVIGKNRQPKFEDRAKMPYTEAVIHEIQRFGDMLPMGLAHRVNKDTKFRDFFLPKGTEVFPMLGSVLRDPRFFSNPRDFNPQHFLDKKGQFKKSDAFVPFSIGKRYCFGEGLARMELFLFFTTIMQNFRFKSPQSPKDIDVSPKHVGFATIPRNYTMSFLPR

P450 1B1 [3] = target: T2, P450 1B1; assay: Spectral binding titration with purified P450 1B1; conditions: for ΔAmax/ Ks / ΔAmax: P450 1B1, Reverse Type I spectra; for ΔAmax: ± SE
P450 2A6 [4] = target: T1, P450 2A6; assay: Spectral binding titration with purified P450 2A6

SMILES: OC1C=C2c3ccccc3-c3cccc(c32)C1O (stereo not drawn) [FA-2,3-diol, 2,3-dihydroxy-2,3-dihydrofluoranthene]
- activation of procarcinogens umu gene expression (P450 2A6 [1]): 36 ± 8 units/min/nmol P450
- activation of procarcinogens umu gene expression (P450 1B1 [2]): 30 ± 11 units/min/nmol P450
- Kd (P450 2A13): 0.86 ± 0.16 µM
- ΔAmax/ Ks (P450 2A13): 0.060
- ΔAmax (P450 2A13): 0.052 ± 0.003
- activation of procarcinogens umu gene expression (human P450 2A13): 88 ± 13 units/min/nmol P450
- Kd (P450 1B1 [3]): 7.4 ± 1.3 µM
- ΔAmax/ Ks (P450 1B1 [3]): 0.0058
- ΔAmax (P450 1B1 [3]): 0.043 ± 0.003

SMILES: c1ccc2c(c1)ccc1ccc3ccccc3c12 [B[c]Phe, benzo[c]phenanthrene]
- activation of procarcinogens umu gene expression (P450 2A6 [1]): 22 ± 8 units/min/nmol P450
- activation of procarcinogens umu gene expression (P450 1B1 [2]): 25 ± 10 units/min/nmol P450
- Kd (P450 2A13): 1.1 ± 0.44 µM
- ΔAmax/ Ks (P450 2A13): 0.045
- ΔAmax (P450 2A13): 0.049 ± 0.005
- activation of procarcinogens umu gene expression (human P450 2A13): 55 ± 11 units/min/nmol P450
- Kd (P450 1B1 [3]): 2.5 ± 0.31 µM
- ΔAmax/ Ks (P450 1B1 [3]): 0.016
- ΔAmax (P450 1B1 [3]): 0.039 ± 0.001
- Kd (P450 2A6 [4]): > 20 µM

SMILES: CC(=O)Nc1ccc2c(c1)Cc1ccccc1-2 [2-AAF, 2-acetamidofluorene]
- activation of procarcinogens umu gene expression (P450 2A6 [1]): <10 units/min/nmol P450
- activation of procarcinogens umu gene expression (P450 1B1 [2]): <10 units/min/nmol P450
- activation of procarcinogens umu gene expression (human P450 2A13): <10 units/min/nmol P450
- Kd (P450 1B1 [3]): 20 ± 7.8 µM
- ΔAmax/ Ks (P450 1B1 [3]): 0.0018
- ΔAmax (P450 1B1 [3]): 0.035 ± 0.009

SMILES: c1ccc2c(c1)ccc1c3ccccc3ccc21 [chrysene]
- Kd (P450 2A13): > 20 µM
- Kd (P450 1B1 [3]): > 20 µM

SMILES: OC1C=Cc2c(ccc3ccc4ccccc4c23)C1O (stereo not drawn) [B[c]Phe-3,4-diol, 3,4-dihydroxy-3,4-dihydrobenzo[c]phenanthrene]
- activation of procarcinogens umu gene expression (P450 2A6 [1]): 33 ± 10 units/min/nmol P450
- activation of procarcinogens umu gene expression (P450 1B1 [2]): 140 ± 21 units/min/nmol P450
- Kd (P450 2A13): > 20 µM
- activation of procarcinogens umu gene expression (human P450 2A13): 45 ± 8 units/min/nmol P450
- Kd (P450 1B1 [3]): > 20 µM

SMILES: Cc1cc2ccccc2c2ccc3ccccc3c12 [5-methylchrysene]
- Kd (P450 2A13): > 20 µM
- Kd (P450 1B1 [3]): 6.9 ± 2.4 µM
- ΔAmax/ Ks (P450 1B1 [3]): 0.0064
- ΔAmax (P450 1B1 [3]): 0.044 ± 0.008

SMILES: Cn1c(N)nc2c3cccnc3ccc21 [IQ, 2-amino-3-methylimiidazo[4,5-f]quinoline]
- activation of procarcinogens umu gene expression (P450 2A6 [1]): 75 ± 11 units/min/nmol P450
- activation of procarcinogens umu gene expression (P450 1B1 [2]): 220 ± 29 units/min/nmol P450
- activation of procarcinogens umu gene expression (human P450 2A13): 430 ± 40 units/min/nmol P450

SMILES: OC1c2cccc3ccc4c5ccccc5cc(c4c23)C1O (stereo not drawn) [B[a]P-4,5-diol, 4,5-dihydroxy-4,5-dihydrobenzo[a]pyrene]
- Kd (P450 1B1 [3]): 23 ± 10 µM

- Kd (P450 2A13): > 20 µM
- Kd (P450 1B1 [3]): 33 ± 36 µM
- ΔAmax/ Ks (P450 1B1 [3]): 0.0026
- ΔAmax (P450 1B1 [3]): 0.085 ± 0.076
- Kd (P450 2A6 [4]): > 20 µM
SMILES: Nc1ccc2cc3ccccc3cc2c1 [2-AA, 2-aminoanthracene]
- activation of procarcinogens umu gene expression (P450 2A6 [1]): 1200 ± 89 units/min/nmol P450
- activation of procarcinogens umu gene expression (P450 1B1 [2]): 1900 ± 210 units/min/nmol P450
- activation of procarcinogens umu gene expression (human P450 2A13): 560 ± 40 units/min/nmol P450

SMILES: OC1C=Cc2c(ccc3c4ccccc4c4ccccc4c23)C1O (stereo not drawn) [B[g]C-11,12-diol, 11,12-dihydroxy-11,12-dihydrobenzo[g]chrysene]
- activation of procarcinogens umu gene expression (P450 2A6 [1]): <10 units/min/nmol P450
- activation of procarcinogens umu gene expression (P450 1B1 [2]): 207 ± 25 units/min/nmol P450
- activation of procarcinogens umu gene expression (human P450 2A13): <10 units/min/nmol P450
